Results: patent US20050148042A1, “Hybrid phosphoinositide phospholipids: compositions and uses” (priority 2002, published 2005)

Columns and labels:
[1] = tested on: anti-PIP3 antibody; experiment: Antibody binding to lipids covalently coupled to Maleic-Anhydride activated 96-well plate; conditions: 50 pmol per well, absorbance at 450 nm
Description: The ability of lipid recognition proteins to specifically recognize and bind to Pea-PIPns was tested by coupling Pea-PIPns (as well as amino PIPs with the same headgroups as controls) to polystyrene microtiter plates. Briefly, 50 pmol per well of amino PI(4,5)P2 (PIP2), amino PI(3,4,5)P3 (PIP3), Pea-PI(4,5)P2 (Pea-PIP2), and Pea-PI(3,4,5)P3 (Pea-PIP3) lipids in 100 μL PBS were coupled via their primary amine functional groups to triplicate wells of a Maleic-Anhydride activated 96-well plate (Pierce, Rockford, Ill.). Underivatized groups were reacted with 200 μL Tris-Glycine-SDS overnight before blocking with 200 μL 0.02% Ovalbumin in TBS. […] Specific binding was subsequently visualized by incubating with anti-mouse-HRP (horseradish peroxidase) secondary antibody (Sigma, St Louis, Mo.), washing as before, then adding tetramethylbenzadine (TMB) developing reagent (Sigma) and reading the absorbance at 450 nm in a plate reader.
Binding specificity of Pea-PIPs was further tested by coupling Pea-PIP2 and Pea-PIP3 (as well as amino PIPs with the same headgroups as controls) to polystyrene microtiter plates. […] Specific binding was subsequently visualized by incubating with anti-mouse-HRP secondary antibody (Sigma, St Louis, Mo.), washing as before, then adding Tetramethylbenzadine (TMB) developing reagent (Sigma) and reading the absorbance at 450 nm in a plate reader.

[2] = biological target: T1, GST-PLC δ1-PH (Homo sapiens, UniProt P51178); experiment: Protein-overlay binding to lipids spotted onto nitrocellulose; conditions: 200 pmol to 6 pmol spotted onto nitrocellulose
T1 construct: made in house; host or cells: E. coli
T1 sequence (P51178 21-130 limits assumed): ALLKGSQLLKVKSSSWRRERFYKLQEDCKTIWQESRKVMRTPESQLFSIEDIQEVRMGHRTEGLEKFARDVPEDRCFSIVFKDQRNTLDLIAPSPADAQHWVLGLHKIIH
Text: In this Example, immobilized Pea-PIPns are readily and specifically recognized by lipid recognition proteins. According to this Example, six different quantities (from 200 pmol to 6 pmol) of Ptdlns(3,4)P2, Ptdlns(3,5)P2, Ptdlns(4,5)P2, Pea-PI(4,5)P2,Ptdlns(3,4,5)P3; Pea-PI(3,4,5P)3 PI and PE were spotted onto nitrocellulose, and binding of Glutathione S-Transferase (GST)-PLC δ1-PH and GST-General Receptor for Phosphoinositides (Grp1)-PH constructs was examined by a protein-overlay technique (described in Dowler, S., Kular, G., and Alessi, D. R. (2002) Sci STKE 2002, PL6) (recombinant GST tagged PLC δ1-PH and Grp1-PH domain proteins used in this Example were expressed in E. coli then purified using glutathione affinity resin (Amersham Biosciences, Piscataway, N.J.).

[3] = biological target: T2, GST-PLC δ1-PH domain (Homo sapiens, UniProt P51178); experiment: AlphaScreen competitive binding, biotinylated Pea-PI(4,5)P2 as probe lipid
T2 construct: made in house; host or cells: E. coli
T2 sequence (P51178 21-130 limits assumed): T1 sequence (P51178 21-130 limits assumed)
Description: In addition, competitive binding assays were conducted in which the GST-PLC δ1-PH protein was pre-incubated for 30 min with 10 nM to 10 fM of unlabeled diC4 Ptdlns(4,5)P2, Ptdlns(3,4,5)P3, or Pea-PI(4,5)P2 prior to addition of the other reagents, using biotinylated Pea-PI(4,5)P2 as the probe lipid.
These competitive binding experiments were similar to the binding experiment described above except that non biotinylated lipids are added to each reaction to compete with biotinylated Pea-PI(4,5)P2 for binding to PLC-δ 1-PH domain. For example, eight concentrations of PI(3,4,5)P3 diC4, PI(4,5)P2 diC4, and Pea-PI(4,5)P2 were added as competitors to separate wells in addition to 0.2 pmol/well PLC-δ-1-PH domain, 0.4 pmol/well of Pea-PI(4,5)P2, streptavidin donor, and anti-GST acceptor beads; and incubated as previously described. […] This 500 times better affinity of Pea-PI(4,5)P2 for PLC d1-PH domain compared to PI(3,4,5)P3 is fundamental to the development of a robust assay where one detects the specific PIPn product of a kinase or phosphatase in the presence of excess PIPn substrate.

[4] = protein pre-incubated 30 min with 10 nM to 10 fM competitor

CCCCCCCCCCCCCCCC(=O)O[C@H](COP(=O)(O)OCCN)[C@@H](COP(=O)(O)O[C@@H]1[C@H](O)[C@H](O)[C@@H](OP(=O)(O)O)[C@H](OP(=O)(O)O)[C@H]1O)OC(=O)CCCCCCCCCCCCCCC [Pea-PI(4,5)P2, 1-[(2R,3R)-4-(2-Aminoethoxyphosphoryloxy)-2,3-di-O-palmitoylbutoxyphosphoryloxy]-4,5-myo-bisphosphate]
recognition by anti-PIP3 antibody [1]: (but not Pea-PIP2) was recognized by the specific antibody
recognition by GST-PLC δ1-PH [2]: able to bind the correct protein at lower concentrations than the corresponding diC16 phosphoinositides
IC50 ([3]; 0.2 pmol/well PLC-δ-1-PH domain, 0.4 pmol/well probe lipid, read-out: IC50 value as competitor): 140 nM
binding to the PH domain as unlabeled competitor [3, 4]: further increase in binding
better affinity for PLC d1-PH domain compared to PI(3,4,5)P3 ([3]; ratio of IC50 values): 500 times

CCCC(=O)OCC(COP(=O)(O)OC1C(O)C(O)C(OP(=O)(O)O)C(OP(=O)(O)O)C1O)OC(=O)CCC (stereo not drawn) [di-C4 Ptdlns(4,5)P2, reference compound]
selectivity for displacement of GST-PLC δ1-PH, relative to di-C4 Ptdlns(3,4,5)P3 [3, 4]: Over 100 fold
